Measurements as given in paper PMC4076014 (ACS chemical biology, 2014).
pIC50: −log10 of the molar value. Where two headings read alike, the source gives them in different places.

Experiments:
[1] = target: INPP5B catalytic domain (Homo sapiens, UniProt P32019); assay: Malachite green assay with IP3 substrate, dose response; assay type: biochemical
[2] = target: Synaptojanin 1 (SJ1) (Homo sapiens, UniProt O43426); assay: Fluorescence polarization; assay type: biochemical
[3] = target: T1, INPP5E (Homo sapiens, UniProt Q9NRR6); assay: Fluorescence polarization; assay type: biochemical
T1 sequence (Q9NRR6 294-598 limits assumed): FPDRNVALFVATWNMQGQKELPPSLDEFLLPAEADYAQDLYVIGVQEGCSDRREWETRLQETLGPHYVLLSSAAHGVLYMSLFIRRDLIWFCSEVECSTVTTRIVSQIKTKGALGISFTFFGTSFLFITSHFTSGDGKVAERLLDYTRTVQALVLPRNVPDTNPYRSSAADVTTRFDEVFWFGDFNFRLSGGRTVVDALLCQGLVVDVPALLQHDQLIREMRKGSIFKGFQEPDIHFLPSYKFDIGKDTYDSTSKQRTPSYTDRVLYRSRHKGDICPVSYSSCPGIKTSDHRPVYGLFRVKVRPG

[4] = target: T2, SHIP1 (Mus musculus, UniProt Q9ES52); assay: Fluorescence polarization; assay type: biochemical
T2 sequence (Q9ES52 1-1191): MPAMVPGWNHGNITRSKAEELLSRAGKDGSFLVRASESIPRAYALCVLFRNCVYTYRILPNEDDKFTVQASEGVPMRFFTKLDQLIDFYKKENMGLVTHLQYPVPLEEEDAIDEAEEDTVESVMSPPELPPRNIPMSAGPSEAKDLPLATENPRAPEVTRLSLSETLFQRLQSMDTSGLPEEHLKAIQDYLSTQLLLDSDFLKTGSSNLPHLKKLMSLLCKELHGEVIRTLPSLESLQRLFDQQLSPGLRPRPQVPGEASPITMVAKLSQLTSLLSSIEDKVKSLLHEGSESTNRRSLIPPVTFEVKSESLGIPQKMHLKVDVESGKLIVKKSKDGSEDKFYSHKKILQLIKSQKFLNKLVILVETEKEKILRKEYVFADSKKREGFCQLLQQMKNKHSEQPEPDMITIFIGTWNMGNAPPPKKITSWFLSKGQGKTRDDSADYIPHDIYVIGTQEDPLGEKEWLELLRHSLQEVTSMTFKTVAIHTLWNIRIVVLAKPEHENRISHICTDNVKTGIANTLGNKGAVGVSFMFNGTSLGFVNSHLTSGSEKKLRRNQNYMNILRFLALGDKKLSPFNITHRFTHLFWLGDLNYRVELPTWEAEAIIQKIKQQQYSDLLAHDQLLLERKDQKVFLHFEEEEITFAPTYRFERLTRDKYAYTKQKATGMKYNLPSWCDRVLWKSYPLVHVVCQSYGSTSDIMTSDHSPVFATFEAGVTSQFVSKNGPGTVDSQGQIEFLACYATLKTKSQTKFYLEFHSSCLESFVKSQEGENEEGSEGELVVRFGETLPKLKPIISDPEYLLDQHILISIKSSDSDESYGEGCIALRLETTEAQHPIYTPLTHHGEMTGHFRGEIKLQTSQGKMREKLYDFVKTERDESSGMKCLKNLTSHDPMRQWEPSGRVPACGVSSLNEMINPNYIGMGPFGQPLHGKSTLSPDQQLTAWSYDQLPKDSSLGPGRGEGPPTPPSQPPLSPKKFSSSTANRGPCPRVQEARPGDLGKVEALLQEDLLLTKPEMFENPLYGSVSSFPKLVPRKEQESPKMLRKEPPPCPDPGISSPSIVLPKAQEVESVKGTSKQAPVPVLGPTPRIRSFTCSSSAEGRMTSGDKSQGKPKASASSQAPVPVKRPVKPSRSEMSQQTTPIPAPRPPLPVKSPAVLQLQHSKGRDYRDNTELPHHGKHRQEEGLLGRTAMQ

[5] = target: T3, INPP5A (Homo sapiens, UniProt Q14642); assay: Malachite green assay with IP3 substrate, dose response; assay type: biochemical
T3 sequence (Q14642 1-402): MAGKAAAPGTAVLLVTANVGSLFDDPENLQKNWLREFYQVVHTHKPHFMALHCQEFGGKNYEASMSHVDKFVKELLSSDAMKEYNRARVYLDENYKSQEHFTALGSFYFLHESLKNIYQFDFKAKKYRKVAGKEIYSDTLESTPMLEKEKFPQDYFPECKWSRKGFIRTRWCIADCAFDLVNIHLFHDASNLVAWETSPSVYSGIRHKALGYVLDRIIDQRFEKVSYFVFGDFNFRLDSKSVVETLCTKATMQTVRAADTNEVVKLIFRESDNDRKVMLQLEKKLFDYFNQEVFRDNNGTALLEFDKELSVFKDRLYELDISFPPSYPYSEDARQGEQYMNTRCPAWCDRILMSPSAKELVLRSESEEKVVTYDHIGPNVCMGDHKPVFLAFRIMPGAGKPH

[6] = target: catalytic domain of human INPP5B (Homo sapiens, UniProt P32019); assay: Isothermal titration calorimetry; assay type: binding
[7] = system: 5-phosphatase domain of human OCRL in COS-7 cells; assay: Optogenetic in situ phosphatase assay; assay type: cell-based; details: 50 μM, COS-7, n=14 cells, P<0.001 vs DMSO control
[8] = system: human dermal fibroblasts; assay: Cellular inositol lipid levels, 3H-myo-inositol labeling and HPLC; assay type: cell-based; details: 50 μM, 1 hour treatment
[9] = target: T4, INPP5B (Homo sapiens, UniProt P32019); assay: biochemical
[10] = system: cell cultures; details: preliminary experiments / data not shown
[11] = target: T4, INPP5B; assay: biochemical; remark: listed apart in the source

Compound: COc1cc(CN)c(Br)cc1OCc1ccccc1Cl [YU144118]
- pIC50 [1]: 5.96
- pIC50 [2]: 5.89
- pIC50 [3]: 5.24
- pIC50 [4]: 5.05
- pIC50 [5]: 5.74

Compound: c1cc(-c2nnc3scnn23)ccn1 [YU142670]
- N (stoichiometry, ITC) ([6]; 25°C): 0.9108 ± 0.0547
- ΔH (ITC) ([6]; 25°C): −7270 ± 588.6
- ΔS (ITC) ([6]; 25°C): 0.5933
- Ka (association constant, ITC) ([6]; 25°C, 500 µM compound into 33 µM INPP5B catalytic domain, 5% DMSO): 2.352×10^5 ± 8.744×10^4
- pIC50 [1]: 6.28
- Loss (drop) of plasma membrane iRFP-PH-PLCδ1 fluorescence [7]: 32±3%
- All other phosphoinositide levels measured [8]: remained unchanged
- pIC50 [3]: < 4.15
- pIC50 [9]: 4.76

Compound: CCOc1cc(CN)cc(Br)c1OCC [YU144369]
- Heat of binding to INPP5B catalytic domain (ITC, in words) ([6]; protein precipitation during the experiment, results inconclusive, data not shown): measurable heat of binding
- pIC50 [1]: 6.24
- pIC50 [2]: 5.44
- pIC50 [3]: 5.63
- Toxicity on cell cultures [10]: acute toxicity
- pIC50 [4]: 5.60
- pIC50 [5]: 5.97

Compound: CC(C)Oc1c(Cl)cc(CN)cc1Cl [YU144530]
- pIC50 [1]: 6.09
- pIC50 [2]: < 4.15
- pIC50 [3]: 5.55
- pIC50 [4]: 5.54
- pIC50 [5]: 5.84

Compound: COc1cc(-c2nnc3sc(-c4cccs4)nn23)cc(OC)c1OC [YU142717]
- pIC50 [1]: 6.04
- pIC50 [11]: 5.58
